Experimental data as given in patent publication US8871767B2, “2-arylimidazo[1,2-B]pyridazine, 2-phenylimidazo[1,2-A]pyridine, and 2-phenylimidazo[1,2-A]pyrazine derivatives” (Hengrui (USA) Ltd., priority 2010, dated 2014).

System: Hedgehog pathway activation (GLi-luciferase reporter) in Shh Light II reporter cells
Assay: Hedgehog pathway activation on Shh Light II reporter cells measured by luciferase activity
Assay type: cell-based
Conditions: Mus musculus, Shh Light II, hShh activation, read-out: Shh (IC50, inhibition of Hedgehog pathway activation)
How it was run: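 Shh Light II reporter cells carrying a hedgehog-responsive GLi-luciferase reporter were stimulated either with 500 nM SAG, a direct Smoothened agonist, or with conditioned media containing human Sonic Hedgehog (hShh). Test compounds were evaluated for blocking this pathway activation, quantified by luciferase activity. Cell viability was monitored in parallel with the Celltiter-Blue® assay.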

SMILES	IC50 [nM]
CCOC(=O)CCCCCCNC1CCN(c2ccc3nc(-c4ccc(C)c(NC(=O)C(C)(C)C)c4)cn3n2)C1 (stereo not shown) [Example 415, ethyl 7-(1-(2-(4-methyl-3-pivalamidophenyl)imidazo[1,2-b]pyridazin-6-yl)pyrrolidin-3-ylamino)heptanoate]	1760
Cc1ccc(-c2cn3nc(-c4cncc(C(F)(F)F)c4)ccc3n2)cc1NC(=O)C(C)(C)C [compound 536, N-(2-methyl-5-(6-(5-(trifluoromethyl)pyridin-3-yl)imidazo[1,2-b]pyridazin-2-yl)phenyl)pivalamide]	370
Cc1ccc(-c2cn3nc(C4=CCCCC4)ccc3n2)cc1NC(=O)C(C)(C)C [Example 443, N-(5-(6-cyclohexenylimidazo[1,2-b]pyridazin-2-yl)-2-methylphenyl)pivalamide]	1880
Cc1ccc(-c2cn3nc(-c4ccc(OCC(=O)NO)cc4C(F)(F)F)ccc3n2)cc1NC(=O)C(C)(C)C [Example 455, N-(5-(6-(4-(2-(hydroxyamino)-2-oxoethoxy)-2-(trifluoromethyl)phenyl)imidazo[1,2-b]pyridazin-2-yl)-2-methylphenyl)pivalamide]	3460
Cc1ccc(-c2cn3nc(-c4cc(C=CC(=O)NO)ccc4Cl)ccc3n2)cc1NC(=O)C(C)(C)C [compound 579]	317
COC(=O)CN(C(=O)C(C)(C)C)c1cc(-c2cn3nc(-c4cccnc4C(F)(F)F)ccc3n2)ccc1C [compound 515, methyl 2-(N-(2-methyl-5-(6-(2-(trifluoromethyl)pyridin-3-yl)imidazo[1,2-b]pyridazin-2-yl)phenyl)pivalamido)acetate]	911
Cc1ccc(-c2cn3nc(-c4ccc(O)cc4C(F)(F)F)ccc3n2)cc1NC(=O)C(C)(C)C [Example 409, N-(5-(6-(4-hydroxy-2-(trifluoromethyl)phenyl)imidazo[1,2-b]pyridazin-2-yl)-2-methylphenyl)pivalamide]	236
Cc1ccc(F)c(-c2ccc3nc(-c4ccc(C(F)(F)F)c(NC(=O)C(C)(C)C)c4)cn3n2)c1 [Example 226, N-(5-(6-(2-fluoro-5-methylphenyl)imidazo[1,2-b]pyridazin-2-yl)-2-(trifluoromethyl)phenyl)pivalamide]	1480
Cc1ccc(-c2cn3nc(-c4cccc(C(=O)NO)c4)ccc3n2)cc1NC(=O)C(C)(C)C [compound 589]	498
COc1cc(-c2ccc3nc(-c4ccc(C)c(NC(=O)C(C)(C)C)c4)cn3n2)ncc1C(=O)O [Example 461, 4-methoxy-6-(2-(4-methyl-3-pivalamidophenyl)imidazo[1,2-b]pyridazin-6-yl)nicotinic acid]	8390
Cc1ccc(-c2cn3nc(-c4cc(CO)ccc4F)ccc3n2)cc1NC(=O)C(C)(C)C [Example 275, N-(5-(6-(2-fluoro-5-(hydroxymethyl)phenyl)imidazo[1,2-b]pyridazin-2-yl)-2-methylphenyl)pivalamide]	1800
CC(C)c1ccccc1-c1ccc2nc(-c3ccc(C(F)(F)F)c(NC(=O)C(C)(C)C)c3)cn2n1 [Example 324, N-(5-(6-(2-isopropylphenyl)imidazo[1,2-b]pyridazin-2-yl)-2-(trifluoromethyl)phenyl)pivalamide]	1460
CC(=O)Nc1ncc(-c2cc(-c3cn4nc(-c5cccnc5C(F)(F)F)ccc4n3)ccc2C)s1 [compound 513]	376
Cc1ccnc(F)c1-c1ccc2nc(-c3ccc(C(F)(F)F)c(NC(=O)C(C)(C)C)c3)cn2n1 [Example 342, N-(5-(6-(2-fluoro-4-methylpyridin-3-yl)imidazo[1,2-b]pyridazin-2-yl)-2-(trifluoromethyl)phenyl)pivalamide]	409
CCOC(=O)C=Cc1ccc2nc(-c3ccc(C)c(NC(=O)C(C)(C)C)c3)cn2n1 [compound 572]	596
Cc1ccc(-c2cn3nc(-c4c(C)n[nH]c4C)ccc3n2)cc1NC(=O)C(C)(C)C [compound 501]	1000
